Assay results reported in patent US20080305186A1, “Method and Composition for the Treatment of Cardiac Hypertrophy” (BOARD OF REGENTS, THE UNIVERSITY OF TEXAS SYSTEM, priority 2007, published 2008).
“Also recorded” adds a separate entry of the source.

Experiments:
cardiac gene expression = assay: Real-time quantitative RT-PCR of heart RNA; format: in vivo, mice; set-up: key to Oncostatin receptor (Osmr), Real-time RT-PCR: Ind/Red (Induced/reduced) are used instead of fold-changes where no transcript was detected in one of the two samples being compared; Ind/Red (Induced/reduced) are used instead of fold-changes where no transcript was detected in one of the two samples being compared; settings: drug + isoproterenol vs isoproterenol only; for Oncostatin receptor (Osmr), Real-time RT-PCR: no transcript detected in one of the two samples
Description: Real-time reverse transcriptase-polymerase chain reaction (RT-PCR). Real-time quantitative RT-PCR was performed in the iCycler iQ multi-Color real-time PCR detection system (Bio-Rad, Hercules, Calif.) using SYBR Green I dye (Qiagen, Valencia, Calif.) as described by the manufacturer. Briefly, 100 ng of RNA was placed into a 25 μl reaction volume containing 2.5 μl of each primer set (Quantitect Primer Assays, Qiagen), 12.5 μl SYBER Green PCR master mix, and 0.25 μl reverse transcriptase. A typical protocol included reverse transcription at 50° C. for 30 minutes and a denaturation step at 95° C. for 15 minutes followed by 35 cycles with 94° C. denaturation for 15 seconds, 55 C annealing for 30 seconds and 72 C extension for 30 seconds. Detection of the fluorescent product was performed at the end of the extension period at 60° C. for 20 seconds. To confirm amplification specificity, the PCR products were subjected to a melting curve analysis. […] Targets were normalized to reactions performed using Quantitect GAPDH primer assay (Qiagen), and fold change was determined using the comparative threshold method (20).

[1] = doxycycline co-administered with carbamazepine; cited from earlier work
[2] = tested on: positive chronotropic effect induced by isoproterenol; assay: Heart rate of isoproterenol-treated mice; format: in vivo; settings: day 9 of treatment, vs isoproterenol-only mice; n=5; FIG. 5
Description: (§1) All animal and mouse studies and/or models of cardiac hypertrophy were conducted in accordance with the standards set forth in the Guide for the Care and Use of Laboratory Animals (NIH Publication No. 85-23, revised 1996) and were approved by our Institutional Animal Care and Use Committee. Eight week-old C57BL/6 male mice (Jackson Laboratory) were given isoproterenol (Sigma Aldrich) at 40 mg·kg^−1d^−1 administered S.Q. via micro-osmotic pump insertion (ALZET 1007D). Briefly, animals were anesthetized with isoflurane (1.5%) and oxygen (98.5%) using an animal ventilator (Surgivet), an incision (1 cm) was made on the back between the shoulder blades, and micro-osmotic pumps containing isoproterenol dissolved in a saline solution (0.9% NaCl) were inserted into the infrascapular subcutaneous tissue.
Doxycycline was given in drinking water at 6 mg mL^−1 (Sigma Aldrich) containing 5% sucrose unless specified otherwise. Control animals were given 5% sucrose water. […] Briefly, chow was crunched in powder and then mixed with carbamazepine. […]
The heart rates of the mice were measured before induction of cardiac hypertrophy and after treatment on day 9, which was 1 day before they were sacrificed. […] Heart rates were measured before the experiment (t0) and 1 day before the sacrifice. […]

adenylate cyclase = settings: by inhibiting adenylate cyclase; cited from earlier work
[3] = tested on: isoproterenol induced cardiac hypertrophy; assay: Isoproterenol-induced cardiac hypertrophy in mice: heart size, heart weight ratios, histology; format: in vivo, C57BL/6 male mice
Description: as §1
Doxycycline was given in drinking water at 6 mg mL^−1 (Sigma Aldrich) containing 5% sucrose unless specified otherwise. Control animals were given 5% sucrose water. […] Water was added to the mix 0.8:1 (water weight to powder weight ratio) and the resulting paste diced and heated at 60° C. overnight.
Histology. Animal hearts were excised, fixated with 10% phosphate-buffered formalin for 48 hours, and then embedded in paraffin. Cross-sectional slices in the minor axis were obtained with a microtome and the slices stained using Mayer's hematoxylin and eosin (H&E).
Statistical analysis of the data includes values presented are expressed in mean ±S.E.M. All comparisons between groups were performed using a one way ANOVA followed by the Newman-Keuls test. Differences were considered to be statistically significant when P<0.05.
P-values are obtained from a one way ANOVA. […] The control group (isoproterenol) received regular chow and 7% sucrose water. Each circle is the Heart to Body weights ratio obtained for a mouse, while the dashes are the average for each group.

Histone Deacetylase = settings: cited from earlier work
CREB = assay: Western blot of phosphorylation status of CREB; format: in vivo; settings: mice with isoproterenol-induced cardiac hypertrophy
Description: Western Blots. The antibodies for Adra1b and GAPDH were purchased from Santa Cruz Biochemical Co. (Santa Cruz, Calif.). All other antibodies were purchased from Cell Signaling Technology, and Western blot analysis was performed as previously described (21). Briefly, equal amounts of total protein were loaded and separated on sodium dodecyl sulfate (SDS)—10% polyacrylamide gels and then transferred to nitrocellulose membranes. Membranes were blocked with 5% milk and washed in 1× Tween (0.1%)—Tris-buffered saline (TTBS) three times for 5 minutes each. Primary antibodies diluted 1:1000 in 5% milk or bovine serum albumin (BSA) (prepared in 1×TTBS) were allowed to incubate overnight at 4° C. After washing, horseradish peroxidase (HRP)-conjugated secondary antibody (Cell Signaling Technology) was diluted 1:2000 in 5% milk and applied to membranes. Subsequently, membranes were washed and a chemiluminescence substrate (Pierce, Rockford Ill.) was applied and allowed to incubate at room temperature for 5 minutes.

[4] = cited from earlier work

## C[C@H]1c2cccc(O)c2C(=O)C2=C(O)[C@]3(O)C(=O)C(C(N)=O)=C(O)[C@@H](N(C)C)[C@@H]3[C@@H](O)[C@@H]21 [doxycycline]
Cardiac gene expression
  Oncostatin receptor (Osmr), Real-time RT-PCR: Red
Cardiac gene expression; normalized to GAPDH
  Cyclin G2 (Ccng2), Real-time RT-PCR FC: −5.7 FC
  Cyclin-dependent kinase inhibitor 1A (p21) (Cdkn1a), Real-time RT-PCR FC: −7.0 FC
  Cytokine inducible SH2-containing protein 3 (Socs3), Real-time RT-PCR FC: −4.0 FC
  DNA-damage-inducible transcript 4 (Ddit4), Real-time RT-PCR FC: −5.7 FC
  GATA binding protein 4 (Gata4), Real-time RT-PCR FC: 4.9 FC
  Gem GTPase (Gem), Real-time RT-PCR FC: −1.8 FC
  Lipocalin 2 (Lcn2), Real-time RT-PCR FC: −9.9 FC
  Matrix metalloproteinase 3 (Mmp3), Real-time RT-PCR FC: −3.5 FC
  Metallothionein 1 (MT2), Real-time RT-PCR FC: −14.9 FC
  NADPH oxidase 4 (Nox4), Real-time RT-PCR FC: −4.0 FC
  Phospholipase A2 group VII (platelet-activating factor acetylhydrolase, plasma) (Pla2g7), Real-time RT-PCR FC: −1.9 FC
  S100 calcium binding protein A8 (calgranulin A) (S100a8), Real-time RT-PCR FC: −181.0 FC
  S100 calcium binding protein A9 (calgranulin B) (S100a9), Real-time RT-PCR FC: −104.0 FC
  SET and MYND domain containing 1 (Smyd1), Real-time RT-PCR FC: 1.6 FC
  Serine protease inhibitor 2-2 (Spi2-2) (Serpin3n), Real-time RT-PCR FC: −3.8 FC
  Transformation related protein 53 inducible nuclear protein 1 (Trp53inp1), Real-time RT-PCR FC: −1.9 FC
  Tubulin, alpha 4 (Tuba4), Real-time RT-PCR FC: 36.8 FC
[1]
  half-life: shorter

## NC(=O)N1c2ccccc2C=Cc2ccccc21 [carbamazepine]
Cardiac gene expression
  Oncostatin receptor (Osmr), Real-time RT-PCR: Red
Cardiac gene expression; normalized to GAPDH
  Cyclin-dependent kinase inhibitor 1A (p21) (Cdkn1a), Real-time RT-PCR FC: −2.5 FC
  Cytokine inducible SH2-containing protein 3 (Socs3), Real-time RT-PCR FC: −4.3 FC
  GATA binding protein 4 (Gata4), Real-time RT-PCR FC: 2.0 FC
  Matrix metalloproteinase 3 (Mmp3), Real-time RT-PCR FC: −2.5 FC
  NADPH oxidase 4 (Nox4), Real-time RT-PCR FC: −3.5 FC
  Phospholipase A2 group VII (platelet-activating factor acetylhydrolase, plasma) (Pla2g7), Real-time RT-PCR FC: −3.5 FC
  S100 calcium binding protein A8 (calgranulin A) (S100a8), Real-time RT-PCR FC: −2.1 FC
  SET and MYND domain containing 1 (Smyd1), Real-time RT-PCR FC: 3.3 FC
  Serine protease inhibitor 2-2 (Spi2-2) (Serpin3n), Real-time RT-PCR FC: −13.9 FC
  Transformation related protein 53 inducible nuclear protein 1 (Trp53inp1), Real-time RT-PCR FC: −3.0 FC
[2]
  heart rate: significantly lower heart rates; also recorded: attenuation of the positive chronotropic effect
Adenylate cyclase
  basal and forskolin-stimulated cAMP production: abrogate both basal and forskolin-stimulated cAMP production
[3]; isoproterenol mice, H&E cross sections, FIG. 2
  hypertrophic phenotype, heart cross sections (histology): structure that is relatively well preserved; also recorded: reduced the hypertrophic phenotype
[3]; isoproterenol mice, 10 days, doxycycline 10 mg/mL in 7% sucrose water, carbamazepine […] in chow, FIG. 3, carbamazepine vs control P<0.01
  Heart to Body weights ratio: significantly decreased
[3]; isoproterenol mice, carbamazepine in chow or doxycycline in water vs no drug, FIG. 1, carbamazepine vs control P<0.0001
  Heart to Tibia length ratio: significantly lower; also recorded: significantly decreased
[3]; single isoproterenol and carbamazepine treated mouse, FIG. 2C (untreated isoproterenol mouse 0.1800, wild type 0.1305)
  heart weight: 0.1415 grams
Histone Deacetylase
  inhibition of Histone Deacetylase (HDAC): inhibit Histone Deacetylase
CREB
  levels of phosphorylated CREB: Almost no phosphorylated CREB was detected
[4]; epileptic patients
  blood pressure and heart rates: lower blood pressure and heart rates
[4]; in vivo
  cardiovascular toxic effects: no cardiovascular toxic effects
